Data as given in BindingDB's records for doi:10.1016/s0960-894x(02)00455-9 (Fukui Research Institute, 2002).

What was measured:
[1] = molecular target: T1, Nitric oxide synthase, endothelial (Homo sapiens, UniProt P29474); experiment: ChEBML_64984
T1 sequence (P29474 whole entry): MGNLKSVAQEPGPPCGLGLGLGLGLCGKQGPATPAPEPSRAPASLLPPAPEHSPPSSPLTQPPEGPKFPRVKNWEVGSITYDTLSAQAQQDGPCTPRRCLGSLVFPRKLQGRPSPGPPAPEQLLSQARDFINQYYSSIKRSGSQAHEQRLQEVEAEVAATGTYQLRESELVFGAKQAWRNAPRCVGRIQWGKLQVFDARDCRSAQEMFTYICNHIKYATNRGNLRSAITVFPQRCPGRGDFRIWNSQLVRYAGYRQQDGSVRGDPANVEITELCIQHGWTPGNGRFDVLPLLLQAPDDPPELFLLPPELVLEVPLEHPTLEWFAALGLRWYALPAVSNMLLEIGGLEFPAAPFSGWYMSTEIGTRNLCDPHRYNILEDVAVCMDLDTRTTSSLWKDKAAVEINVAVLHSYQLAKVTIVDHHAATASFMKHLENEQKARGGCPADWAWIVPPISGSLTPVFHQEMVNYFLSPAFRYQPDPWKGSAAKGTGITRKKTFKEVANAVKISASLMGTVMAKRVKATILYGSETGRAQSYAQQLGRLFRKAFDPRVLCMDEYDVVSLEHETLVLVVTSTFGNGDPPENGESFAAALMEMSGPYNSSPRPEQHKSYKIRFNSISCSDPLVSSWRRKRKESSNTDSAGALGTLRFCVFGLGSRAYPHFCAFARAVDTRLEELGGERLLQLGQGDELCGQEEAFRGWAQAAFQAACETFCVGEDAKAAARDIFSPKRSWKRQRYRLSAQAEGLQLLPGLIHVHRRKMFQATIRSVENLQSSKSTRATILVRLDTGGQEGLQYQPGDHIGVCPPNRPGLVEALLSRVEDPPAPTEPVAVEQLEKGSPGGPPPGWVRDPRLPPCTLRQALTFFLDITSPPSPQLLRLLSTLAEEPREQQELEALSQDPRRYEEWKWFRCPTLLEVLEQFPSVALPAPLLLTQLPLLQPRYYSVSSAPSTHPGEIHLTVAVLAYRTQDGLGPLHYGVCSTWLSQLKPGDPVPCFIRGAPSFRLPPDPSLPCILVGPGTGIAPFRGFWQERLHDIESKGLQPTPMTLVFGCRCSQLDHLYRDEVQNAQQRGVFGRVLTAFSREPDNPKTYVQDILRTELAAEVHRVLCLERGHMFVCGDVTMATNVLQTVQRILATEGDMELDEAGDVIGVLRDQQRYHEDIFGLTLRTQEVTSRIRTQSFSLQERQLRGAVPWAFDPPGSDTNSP
Source text: Inhibition of human endothelial Nitric Oxide Synthase expressed in Sf-21 cells

[2] = molecular target: Nitric oxide synthase, inducible (Homo sapiens, UniProt P35228); experiment: ChEBML_89186
Source text: Concentration required to inhibit Inducible nitric oxide synthase over expressed in A549 cells

Sequence of Nitric oxide synthase, inducible (P35228 whole entry): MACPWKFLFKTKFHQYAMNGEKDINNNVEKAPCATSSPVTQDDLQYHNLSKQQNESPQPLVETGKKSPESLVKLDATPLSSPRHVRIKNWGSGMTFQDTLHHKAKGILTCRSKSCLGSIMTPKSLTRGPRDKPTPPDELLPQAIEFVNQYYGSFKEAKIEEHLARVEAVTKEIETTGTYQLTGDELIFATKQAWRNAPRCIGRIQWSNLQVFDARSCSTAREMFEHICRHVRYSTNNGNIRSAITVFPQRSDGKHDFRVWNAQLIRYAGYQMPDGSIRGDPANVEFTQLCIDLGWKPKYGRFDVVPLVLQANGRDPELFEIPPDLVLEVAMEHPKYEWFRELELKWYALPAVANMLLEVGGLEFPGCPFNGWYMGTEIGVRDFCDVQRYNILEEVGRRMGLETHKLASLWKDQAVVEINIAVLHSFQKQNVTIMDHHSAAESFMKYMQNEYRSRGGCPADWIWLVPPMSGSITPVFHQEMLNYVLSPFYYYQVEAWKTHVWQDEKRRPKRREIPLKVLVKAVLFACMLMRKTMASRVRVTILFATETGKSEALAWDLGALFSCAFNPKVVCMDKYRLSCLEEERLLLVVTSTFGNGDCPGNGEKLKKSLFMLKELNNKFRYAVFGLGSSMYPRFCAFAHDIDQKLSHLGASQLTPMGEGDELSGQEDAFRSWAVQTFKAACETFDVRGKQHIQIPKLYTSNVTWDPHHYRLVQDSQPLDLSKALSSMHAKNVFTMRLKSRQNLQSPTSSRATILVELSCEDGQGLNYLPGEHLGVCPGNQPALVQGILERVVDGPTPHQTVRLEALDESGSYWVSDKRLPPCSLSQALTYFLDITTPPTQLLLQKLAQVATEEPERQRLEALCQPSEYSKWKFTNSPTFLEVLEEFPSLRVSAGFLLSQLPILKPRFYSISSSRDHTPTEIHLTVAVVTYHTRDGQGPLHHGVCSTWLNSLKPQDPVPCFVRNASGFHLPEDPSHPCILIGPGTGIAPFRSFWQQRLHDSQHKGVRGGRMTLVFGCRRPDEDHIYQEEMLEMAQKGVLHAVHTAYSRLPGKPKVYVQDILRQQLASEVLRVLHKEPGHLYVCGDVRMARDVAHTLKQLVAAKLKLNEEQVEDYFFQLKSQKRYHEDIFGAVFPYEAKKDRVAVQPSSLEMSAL

- IC50 [1]: 440 nM
- IC50 [2]: 700 nM
SMILES: CC1=CC(N)=NCC1
